According to patent publication US20250302721A1, “ANTI-AGING EYE CREAM” (L'OREAL, priority 2024, published 2025):

Tests used:
[1] = test system: Full-thickness reconstructed skin (T-Skin, Episkin); test: sGAG release in full-thickness reconstructed skin (sulfated glycosaminoglycan assay kit); assay type: cell-based; conditions: PX 0.02% and 0.06% in medium, Day 11 through Day 15, medium supernatant, n=3, FIG. 7
Method: Full-thickness reconstructed skin (T-Skin, Episkin) was treated systemically with hydroxypropyl tetrahydropyrantriol (PX, 0.02% and 0.06%) based on the T-skin evaluation test. Tissues are received on medium at day 11 and stored at 37C (95% humidity and 5% CO2) until the end of treatments at […]. The tissue receive medium and medium+hydroxypropyl tetrahydropyrantriol starting from Day 11 through Day 15 (n=3). At Day 15, the medium supernatant was collected to be measured with the sulfated glycosaminoglycan assay kit (ab289846, Abcam). For analysis, sGAG release of the supernatant was quantified based on vendor protocol.

[2] = test system: Normal adult human epidermal keratinocytes (NHEK-Ad); test: keratinocyte proliferation (Ki67 vs DAPI staining); assay type: cell-based; conditions: 48 hours, FIG. 9 and FIG. 10
Method: Normal adult human epidermal keratinocytes (NHEK-Ad, Cat #00192627, Lonza, Switzerland) were maintained in basal growth medium (KGM Gold keratinocyte Growth Medium Bulletkit, Cat #00192060) until the initiation of the proliferation experiment. The keratinocytes were seeded at a concentration of 1×10^3/24 well and allowed to equilibrate overnight (n=3/group). The cell culture medium was switched with fresh growth containing different concentrations of hydroxypropyl tetrahydropyrantriol (0.005%, 0.017%, and 0.05%), NAM (0.0012%, 0.004%, and 0.012%) alone and combination of hydroxypropyl tetrahydropyrantriol+niacinamide (PX/NAM). The cells were incubated for 48 hours and the keratinocytes were stained against KI67 primary antibody (Anti-Ki67 antibody, Cat #ab15580, Abcam) and goat anti-rabbit IgG Alexa Fluor®488 secondary antibody (Cat #150077, Abcam). The Ki67 and DAPI fluorescent signals were captured using a fluorescent microscope (DMi8, Leica). The Ki67 expression was quantified against total cell nucleus staining (DAPI staining solution, ab228549, Abcam) in order to calculate the number of proliferating cells vs. total number of cells.

Row | Structure (SMILES) | sGAG release [1] | skin cell proliferation (Ki67 vs total nuclei) ([2]; 0.004% niacinamide) | skin cell proliferation (Ki67 vs total nuclei) ([2]; 0.012% niacinamide)
1 | CC(O)C[C@@H]1OC[C@@H](O)[C@H](O)[C@H]1O (stereo partly drawn) [hydroxypropyl tetrahydropyrantriol, C-beta-D-xylopyranoside-2-hydroxypropane] | increase sGAG release |  | 
2 | NC(=O)c1cccnc1 [niacinamide] |  | significantly increase proliferation | significantly increase proliferation
